Laboratory results taken from US20240116926A1, “HETEROAROMATIC COMPOUNDS” (AstraZeneca AB, priority 2022, published 2024).
In brackets after ≈: the same amount, converted by molar mass.

How the values were obtained:
[1] = target: TEAD4(217-434) (Homo sapiens (Human), UniProt Q15561); experiment: TEAD4 FRET; type: binding; conditions: depalmitoylated, biotinylated TEAD4(217-434), FAM labelled Probe A, 120 min at 25° C.
[2] = tested on: MCF7-Tead cell line; experiment: TEAD reporter assay; type: cell-based; conditions: MCF7-Tead cells, luciferase activity after 24 hours
[3] = tested on: MCF7-Luciferase cell line; experiment: Control reporter (MCF7-Luciferase); type: cell-based; conditions: MCF7-Luciferase cells, luciferase activity after 24 hours
[4] = Solubility (thermodynamic, shake-flask); type: physicochemical; conditions: thermodynamic from solid; aqueous phosphate buffer (pH 7.4), 24 hours at 25° C.
Method in brief: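 Shake-flask method starting from 10 mM DMSO stocks, which are dried before use. Residue equilibrated 24 h at 25° C. in aqueous phosphate buffer, pH 7.4. Dissolved fraction separated and quantified by UPLC/MS/MS, with QC samples in each run.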

[5] = Protein binding measurements in human plasma (Hu PPB); type: in vitro ADME; conditions: equilibrium dialysis for 18 hours, fraction unbound
Method: The automated equilibrium dialysis assay in human plasma uses the RED (Rapid Equilibrium Dialysis) Device and sample handling. The assay generally runs over two to three days including delivery of results. After dialysis for 18 hours, plasma and buffer samples are prepared for analysis by liquid chromatography and mass spectrometry. Samples are generally tested in singlicates and quantified by LC/MSMS by using a 7-point calibration curve in plasma. The compounds are pooled together in plasma pools up to 10 compounds. Three reference compounds are used in each run, Propranolol, Metoprolol and Warfarin. Warfarin is used as a control in each pool and Propranolol and Metoprolol are placed randomly in each run. An in-house Excel macro is used for preparation of files for the robot and the mass spectrometer and is also used for the calculations of fraction unbound (fu %) in plasma.

Sequence of TEAD4(217-434) (Q15561 217-434): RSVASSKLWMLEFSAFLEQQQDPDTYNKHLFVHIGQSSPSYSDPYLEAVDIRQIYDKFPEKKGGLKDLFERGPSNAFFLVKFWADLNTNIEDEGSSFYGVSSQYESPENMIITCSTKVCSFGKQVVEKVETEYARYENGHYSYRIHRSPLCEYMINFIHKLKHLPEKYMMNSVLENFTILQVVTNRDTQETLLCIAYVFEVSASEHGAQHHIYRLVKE

**Q.** With `C=CC(=O)N1C[C@@H](Nc2nnc(-c3ccc(C(F)(F)F)cc3)c3ccccc23)C[C@@H]1CO` [Example 47, 1-((2R,4S)-2-(hydroxymethyl)-4-((4-(4-(trifluoromethyl)phenyl)phthalazin-1-yl)amino)pyrrolidin-1-yl)prop-2-en-1-one] as the compound, how does the IC50 [1] read?
**A.** Its IC50 is 0.042 µM.

**Q.** What about the IC50 [2] of the same compound?
**A.** Its IC50 is 0.017 µM.

**Q.** And the IC50 [3]?
**A.** The IC50 was 20.7 µM.

**Q.** What about the solubility at 24 h [4] of the same compound?
**A.** Its solubility at 24 h is 13 µM (≈ 5.75 µg/mL).

**Q.** What about the “Hu PPB (% free)” value [5] of the same compound?
**A.** The value was 8.3 % free.

**Q.** Which results are given for `C=CC(=O)N1C[C@@H](Nc2nnc(-c3ccc(C(F)(F)F)cc3)c3ccccc23)C[C@H]1CO` [Example 48, 1-((2S,4S)-2-(hydroxymethyl)-4-((4-(4-(trifluoromethyl)phenyl)phthalazin-1-yl)amino)pyrrolidin-1-yl)prop-2-en-1-one]?
**A.** IC50 [1]: 0.026 µM; IC50 [2]: 0.026 µM; IC50 [3]: 16.1 µM; solubility at 24 h [4]: 2.4 µM (≈ 1.06 µg/mL); Hu PPB (% free) [5]: 5.9 % free

**Q.** Which results are given for `C=CC(=O)N1C[C@H](CO)[C@H](Nc2nnc(-c3ccc(C(F)(F)F)cc3)c3ccccc23)C1` [Example 49, 1-((3S,4S)-3-(hydroxymethyl)-4-((4-(4-(trifluoromethyl)phenyl)phthalazin-1-yl)amino)pyrrolidin-1-yl)prop-2-en-1-one]?
**A.** IC50 [1]: 0.059 µM; IC50 [2]: 0.057 µM; IC50 [3]: > 31.7 µM; solubility at 24 h [4]: 165 µM (≈ 72.9 µg/mL); Hu PPB (% free) [5]: 9.8 % free

**Q.** For `C=CC(=O)N1CCC[C@H](Nc2nnc(-c3ccc(C(F)(F)F)cc3)c3ccccc23)C1` [Example 50, (S)-1-(3-((4-(4-(trifluoromethyl)phenyl)phthalazin-1-yl)amino)piperidin-1-yl)prop-2-en-1-one], which IC50 [1] is on record?
**A.** Its IC50 is 0.03 µM.

**Q.** And the IC50 [2]?
**A.** The IC50 was 0.187 µM.

**Q.** What about the IC50 [3] of the same compound?
**A.** The IC50 was 29 µM.

**Q.** And the solubility at 24 h [4]?
**A.** The solubility at 24 h was < 1.6 µM.

**Q.** And the “Hu PPB (% free)” value [5]?
**A.** Its value is 5.4 % free.
